What all share (format): cell-based, mouse
One assay addresses T1, BaF3-ETV6-NTRK2 (Homo sapiens, UniProt Q16620).
T1 construct: fused on or other part: P41212 (Transcription factor ETV6)
In words: Cell proliferation inhibition (CCK-8), BaF3-ETV6-NTRK2 stable strain. Particulars: BaF3-ETV6-NTRK2, 72 hours. The protocol: (§1) The brief steps of stable strain construction are as follows: construct a pCDNA3.1(+) plasmid vector carrying genes such as CD74-NTRK1, ETV6-NTRK2 and ETV6-NTRK3; the plasmid was electroporated into Ba/F3 cells using the Amaxa® Cell Line Nucleofector® Kit V; 48 hours after electroporated, G418 with a final concentration of 1000 μg/ml was added for screening for two weeks, and then IL3 was removed, and continued screening to obtain polyclonal stable strains; then single clones were selected by a limiting dilution method. The stable strains were then identified using positive drugs, WB and gene sequencing; and the monoclonal clones that were identified as completely correct may be used for the study of cell proliferation inhibitory activity of inhibitors.
(§2) Cell proliferation inhibition activity study: the cells in the logarithmic growth phase were seeded into 96-well plates at 8000-12000 cells/well, and inhibitors at different concentrations (0-10 μM) were added the next day, and incubation was continued for 72 hours; then 10 μL of CCK-8 reagent was added to each well, and the incubation was continued for 1-3 hours; and then use a super microplate reader to measure their absorbance values at 450 nm and 650 nm. The half-inhibition concentration (IC50) was calculated using GraphPad Prism 8.0.0.

The target of another assay is T2, BaF3-ETV6-NTRK3 (Homo sapiens, UniProt Q16288).
T2 construct: fused on or other part: P41212 (Transcription factor ETV6)
T2 sequence (Q16288 whole entry, the tested form may be a part): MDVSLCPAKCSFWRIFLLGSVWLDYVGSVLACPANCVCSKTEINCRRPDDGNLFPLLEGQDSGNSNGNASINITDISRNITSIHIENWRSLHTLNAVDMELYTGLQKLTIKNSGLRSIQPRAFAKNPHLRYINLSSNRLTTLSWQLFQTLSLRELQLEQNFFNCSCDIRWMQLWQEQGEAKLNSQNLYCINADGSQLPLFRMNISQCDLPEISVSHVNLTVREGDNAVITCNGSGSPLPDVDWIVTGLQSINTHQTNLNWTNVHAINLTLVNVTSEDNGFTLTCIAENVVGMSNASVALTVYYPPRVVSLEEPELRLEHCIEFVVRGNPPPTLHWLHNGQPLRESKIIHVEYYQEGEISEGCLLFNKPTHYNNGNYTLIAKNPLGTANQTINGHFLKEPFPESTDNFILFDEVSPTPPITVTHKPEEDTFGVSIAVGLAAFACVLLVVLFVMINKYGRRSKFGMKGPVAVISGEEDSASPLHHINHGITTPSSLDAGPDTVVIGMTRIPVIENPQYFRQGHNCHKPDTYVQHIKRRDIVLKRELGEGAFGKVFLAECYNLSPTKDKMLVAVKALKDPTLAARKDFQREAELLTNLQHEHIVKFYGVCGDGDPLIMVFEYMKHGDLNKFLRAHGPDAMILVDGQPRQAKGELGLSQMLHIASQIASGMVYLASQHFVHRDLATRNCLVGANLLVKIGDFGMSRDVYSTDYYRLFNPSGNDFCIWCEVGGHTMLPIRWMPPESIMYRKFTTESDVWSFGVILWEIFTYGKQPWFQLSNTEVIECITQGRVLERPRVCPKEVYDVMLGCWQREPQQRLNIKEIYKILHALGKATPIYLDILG
In words: Cell proliferation inhibition (CCK-8), BaF3-ETV6-NTRK3 stable strain. The note with it: BaF3-ETV6-NTRK3, 72 hours. Here is the method: as §1, §2

The next assay concerns the target T3, BaF3-CD74-NTRK1 (Homo sapiens, UniProt P04629).
T3 construct: fused on or other part: P04233 (HLA class II histocompatibility antigen gamma chain)
Kind of assay: Cell proliferation inhibition (CCK-8), BaF3-CD74-NTRK1 stable strain. The note with it: BaF3-CD74-NTRK1, 72 hours. The protocol: as §1, §2

29 compounds from patent publication US20220281821A1, “INDAZOLE COMPOUNDS AND THEIR PHARMACEUTICAL COMPOSITIONS” (Jinan University, priority 2019, published 2022) can be followed below.

T3 sequence (P04629 510-796 limits assumed): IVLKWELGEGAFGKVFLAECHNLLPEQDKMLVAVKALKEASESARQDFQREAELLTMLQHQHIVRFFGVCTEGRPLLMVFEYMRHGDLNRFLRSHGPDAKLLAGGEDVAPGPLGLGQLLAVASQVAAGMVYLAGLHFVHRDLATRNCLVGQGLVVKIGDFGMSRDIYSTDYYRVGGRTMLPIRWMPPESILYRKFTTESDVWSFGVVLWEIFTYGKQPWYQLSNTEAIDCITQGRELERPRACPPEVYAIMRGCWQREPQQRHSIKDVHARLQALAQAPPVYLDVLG
T1 sequence (Q16620 538-822 limits assumed): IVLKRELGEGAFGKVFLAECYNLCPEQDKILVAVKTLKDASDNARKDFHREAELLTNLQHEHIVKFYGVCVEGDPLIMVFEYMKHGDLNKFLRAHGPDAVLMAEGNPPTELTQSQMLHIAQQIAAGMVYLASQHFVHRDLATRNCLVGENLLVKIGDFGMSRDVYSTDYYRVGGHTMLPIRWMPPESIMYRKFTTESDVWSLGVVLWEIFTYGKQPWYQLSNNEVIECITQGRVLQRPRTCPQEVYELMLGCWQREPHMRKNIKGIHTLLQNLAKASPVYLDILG

Usually IC50 stands for the concentration needed to halve the response being measured. High values mean a need for much substance, low ones inhibition by little substance. In the case of `N#CCn1cc(/C=C/c2n[nH]c3ccc(NS(=O)(=O)c4cc(F)cc(F)c4)cc23)cn1` [CHW-1, (E)-N-(3-(2-(1-(cyanomethyl)-1H-pyrazol-4-yl)vinyl)-1H-indazol-5-yl)-3,5-difluorobenzene sulfonamide], the half-maximal inhibitory concentration (IC50) against BaF3-ETV6-NTRK2 came out at 43.1 nM; on BaF3-ETV6-NTRK3, 39.2 nM; at BaF3-CD74-NTRK1, 35.5 nM.

With `CC(=O)n1cc(/C=C/c2n[nH]c3ccc(NS(=O)(=O)c4cc(F)cc(F)c4)cc23)cn1` [CHW-2, (E)-N-(3-(2-(1-acetyl-1H-pyrazol-4-yl)vinyl)-1H-indazol-5-yl)-3,5-difluorobenzenesulfonamide], the half-inhibitory concentration (IC50) against BaF3-ETV6-NTRK2 turned out to be 185 nM; against BaF3-ETV6-NTRK3 it was 127 nM; on BaF3-CD74-NTRK1 it was 107 nM.

For `O=S(=O)(Nc1ccc2[nH]nc(/C=C/c3cnn(CC(F)(F)F)c3)c2c1)c1cc(F)cc(F)c1` [CHW-3], the concentration for half-maximal inhibition (IC50) on BaF3-ETV6-NTRK2 came out at 165 nM; against BaF3-ETV6-NTRK3 it was 123 nM; against BaF3-CD74-NTRK1, 92 nM.

Regarding `O=S(=O)(Nc1ccc2[nH]nc(/C=C/c3cnn(C4CC4)c3)c2c1)c1cc(F)cc(F)c1` [CHW-4], the IC50 was found to be 8.2 nM on BaF3-ETV6-NTRK2, 7 nM at BaF3-ETV6-NTRK3 and 3.1 nM against BaF3-CD74-NTRK1.

For `O=S(=O)(Nc1ccc2[nH]nc(/C=C/c3ccccn3)c2c1)c1cccc(F)c1` [CHW-5, (E)-3-fluoro-N-(3-(2-(pyridin-2-yl)vinyl)-1H-indazol-5-yl)benzene sulfonamide], the IC50 was 70.1 nM on BaF3-ETV6-NTRK2, 59.5 nM against BaF3-ETV6-NTRK3 and 27.3 nM against BaF3-CD74-NTRK1.

Take `O=S(=O)(Nc1ccc2[nH]nc(/C=C/c3cnn(CC(F)F)c3)c2c1)c1cc(F)cc(F)c1` [CHW-6]: the results for the IC50 against BaF3-ETV6-NTRK2, against BaF3-ETV6-NTRK3 and on BaF3-CD74-NTRK1 were 60.1 nM, 53.5 nM and 23 nM, respectively.

As to `CC(C)n1cc(/C=C/c2n[nH]c3ccc(NS(=O)(=O)c4cc(F)cc(F)c4)cc23)cn1` [CHW-7, (E)-3,5-difluoro-N-(3-(2-(1-isopropyl-1H-pyrazol-4-yl)vinyl)-1H-indazol-5-yl)benzenesulfonamide], the IC50 on BaF3-ETV6-NTRK2 was found to be 57.8 nM; against BaF3-ETV6-NTRK3 it was 40.9 nM; against BaF3-CD74-NTRK1 it was 33.4 nM.

For the compound `O=S(=O)(Nc1ccc2[nH]nc(/C=C/c3cccnc3)c2c1)c1cc(F)cc(F)c1` [CHW-8, (E)-3,5-difluoro-N-(3-(2-(pyridin-3-yl)vinyl)-1H-indazol-5-yl)benzenesulfonamide], the half-maximal inhibitory concentration (IC50) against BaF3-ETV6-NTRK2 was found to be 248 nM; against BaF3-ETV6-NTRK3 it was 174 nM; against BaF3-CD74-NTRK1, 143 nM.

In the case of `O=S(=O)(Nc1ccc2[nH]nc(/C=C/c3ccccn3)c2c1)c1cncc(F)c1` [CHW-9, (E)-5-fluoro-N-(3-(2-(pyridin-2-yl)vinyl)-1H-indazol-5-yl)pyridine-3-sulfonamide], the values for the IC50 at BaF3-ETV6-NTRK2, against BaF3-ETV6-NTRK3 and at BaF3-CD74-NTRK1 were 134 nM, 121 nM and 60.8 nM, respectively.

As for `CN(C)C(=O)Cn1cc(/C=C/c2n[nH]c3ccc(NS(=O)(=O)c4cc(F)cc(F)c4)cc23)cn1` [CHW-10, (E)-2-(4-(2-(5-((3,5-difluorophenyl)sulfonamido)-1H-indazol-3-yl)vinyl)-1H-pyrazol-1-yl)-N,N-dimethylacetamide], the figures for the IC50 at BaF3-ETV6-NTRK2, on BaF3-ETV6-NTRK3 and at BaF3-CD74-NTRK1 were 439 nM, 390 nM and 274 nM, respectively.

Regarding `O=S(=O)(Nc1ccc2[nH]nc(/C=C/c3cnn(C(F)F)c3)c2c1)c1cc(F)cc(F)c1` [CHW-11], the IC50 amounted to 103 nM against BaF3-ETV6-NTRK2, 111 nM against BaF3-ETV6-NTRK3 and 53.8 nM on BaF3-CD74-NTRK1.

As for `CC(C)OCCn1cc(/C=C/c2n[nH]c3ccc(NS(=O)(=O)c4cc(F)cc(F)c4)cc23)cn1` [CHW-12], the half-inhibitory concentration (IC50) against BaF3-ETV6-NTRK2 came to 55.8 nM; at BaF3-ETV6-NTRK3, 48.1 nM; at BaF3-CD74-NTRK1 it was 33.8 nM.

In the case of `COCCn1cc(/C=C/c2n[nH]c3ccc(NS(=O)(=O)c4cc(F)cc(F)c4)cc23)cn1` [CHW-13], the results for the IC50 at BaF3-ETV6-NTRK2, at BaF3-ETV6-NTRK3 and against BaF3-CD74-NTRK1 were 52.3 nM, 41.3 nM and 40.2 nM, respectively.

As for `CNC(=O)Cn1cc(/C=C/c2n[nH]c3ccc(NS(=O)(=O)c4cc(F)cc(F)c4)cc23)cn1` [CHW-14, (E)-2-(4-(2-(5-((3,5-difluorophenyl)sulfonamido)-1H-indazol-3-yl)vinyl)-1H-pyrazol-1-yl)-N-methylacetamide], the IC50 against BaF3-ETV6-NTRK2 was 427 nM; against BaF3-ETV6-NTRK3 it was 350 nM; at BaF3-CD74-NTRK1, 331 nM.

In the case of `N#Cc1cccc(Cc2ccc3[nH]nc(C#Cc4ccccn4)c3c2)c1` [DYX-136Q, 3-((3-(pyridin-2-ylethynyl)-1H-indazol-5-yl)methyl)benzonitrile], the half-maximal inhibitory concentration (IC50) amounted to 3100 nM on BaF3-ETV6-NTRK2, 2090 nM on BaF3-ETV6-NTRK3 and 4600 nM against BaF3-CD74-NTRK1.

Turning to `FC(F)(F)c1cccc(Cc2ccc3[nH]nc(C#Cc4ccccn4)c3c2)c1` [DYX-138Q], the half-inhibitory concentration (IC50) against BaF3-ETV6-NTRK2, against BaF3-ETV6-NTRK3 and at BaF3-CD74-NTRK1 was over 10000 nM each time.

Turning to `CN(C)C(=O)/C=C/c1n[nH]c2ccc(NCc3cc(F)cc(F)c3)cc12` [DYX-220, (E)-3-(5-((3,5-difluorobenzyl)amino)-1H-indazol-3-yl)-N,N-dimethylacrylamide], the half-maximal inhibitory concentration (IC50) worked out at 31.7 nM on BaF3-ETV6-NTRK2, 22.6 nM against BaF3-ETV6-NTRK3 and 21.2 nM at BaF3-CD74-NTRK1.

Consider `O=C(/C=C/c1n[nH]c2ccc(NCc3cc(F)cc(F)c3)cc12)N1CCOCC1` [DYX-222, (E)-3-(5-((3,5-difluorobenzyl)amino)-1H-indazol-3-yl)-1-morpholinoprop-2-en-1-one], for which the half-maximal inhibitory concentration (IC50) was determined as 54.7 nM on BaF3-ETV6-NTRK2, 41.5 nM on BaF3-ETV6-NTRK3 and 37.3 nM against BaF3-CD74-NTRK1.

Take `NC(=O)/C=C/c1n[nH]c2ccc(NCc3cc(F)cc(F)c3)cc12` [DYX-223, (E)-3-(5-((3,5-difluorobenzyl)amino)-1H-indazol-3-yl)acrylamide]: the results for the IC50 on BaF3-ETV6-NTRK2, against BaF3-ETV6-NTRK3 and on BaF3-CD74-NTRK1 were 24.3 nM, 35.6 nM and 37.7 nM, respectively.

Turning to `CN1CCN(C(=O)/C=C/c2n[nH]c3ccc(NCc4cc(F)cc(F)c4)cc23)CC1` [DYX-226, (E)-3-(5-((3,5-difluorobenzyl)amino)-1H-indazol-3-yl)-1-(4-methylpiperazin-1-yl)prop-2-en-1-one], the IC50 came to 48.1 nM against BaF3-ETV6-NTRK2, 34.4 nM at BaF3-ETV6-NTRK3 and 48.7 nM against BaF3-CD74-NTRK1.

`O=C(/C=C/c1n[nH]c2ccc(NCc3cc(F)cc(F)c3)cc12)N1CC[C@@H](O)C1` [DYX-227, (R,E)-3-(5-((3,5-difluorobenzyl)amino)-1H-indazol-3-yl)-1-(3-hydroxylpyrrolidin-1-yl)prop-2-en-1-one]: the 50% inhibitory concentration (IC50) was determined as 56 nM on BaF3-ETV6-NTRK2, 33.2 nM against BaF3-ETV6-NTRK3 and 37.5 nM on BaF3-CD74-NTRK1.

Regarding `O=C(/C=C/c1n[nH]c2ccc(NCc3cc(F)cc(F)c3)cc12)N1CC[C@H](O)C1` [DYX-228, (S,E)-3-(5-((3,5-difluorobenzyl)amino)-1H-indazol-3-yl)-1-(3-hydroxylpyrrolidin-1-yl)prop-2-en-1-one], the IC50 at BaF3-ETV6-NTRK2 is 20.5 nM; on BaF3-ETV6-NTRK3, 11.6 nM; against BaF3-CD74-NTRK1, 11.9 nM.

As for `CC(C)(C)NC(=O)/C=C/c1n[nH]c2ccc(NCc3cc(F)cc(F)c3)cc12` [DYX-230, (E)-N-tert-butyl-3-(5-((3,5-difluorobenzyl)amino)-1H-indazol-3-yl)acrylamide], the values for the IC50 at BaF3-ETV6-NTRK2, at BaF3-ETV6-NTRK3 and on BaF3-CD74-NTRK1 were 303 nM, 359 nM and 682 nM, respectively.

As for `CC(C)NC(=O)/C=C/c1n[nH]c2ccc(NCc3cc(F)cc(F)c3)cc12` [DYX-231, (E)-3-(5-((3,5-difluorobenzyl)amino)-1H-indazol-3-yl)-N-isopropylacrylamide], the concentration for half-maximal inhibition (IC50) came to 780 nM on BaF3-ETV6-NTRK2, 547 nM at BaF3-ETV6-NTRK3 and 619 nM at BaF3-CD74-NTRK1.

`CNC(=O)/C=C/c1n[nH]c2ccc(NCc3cc(F)cc(F)c3)cc12` [DYX-235, (E)-3-(5-((3,5-difluorobenzyl)amino)-1H-indazol-3-yl)-N-methylacrylamide]: the half-maximal inhibitory concentration (IC50) came out at 32.6 nM on BaF3-ETV6-NTRK2, 34.2 nM at BaF3-ETV6-NTRK3 and 20 nM at BaF3-CD74-NTRK1.

On to `CCNC(=O)/C=C/c1n[nH]c2ccc(NCc3cc(F)cc(F)c3)cc12` [DYX-236, (E)-3-(5-((3,5-difluorobenzyl)amino)-1H-indazol-3-yl)-N-ethylacrylamide], for which the results for the IC50 on BaF3-ETV6-NTRK2, on BaF3-ETV6-NTRK3 and against BaF3-CD74-NTRK1 were 116 nM, 196 nM and 112 nM, respectively.

With `C(=C\c1n[nH]c2ccc(NCc3ccccc3)cc12)/c1ccccn1` [DYX-314, (E)-N-benzyl-3-(2-(pyridin-2-yl)vinyl)-1H-indazol-5-amine], the concentration for half-maximal inhibition (IC50) on BaF3-ETV6-NTRK2 turned out to be 165 nM; against BaF3-ETV6-NTRK3, 149 nM; against BaF3-CD74-NTRK1, 154 nM.

In the case of `C[C@@H](Nc1ccc2[nH]nc(/C=C/c3ccccn3)c2c1)c1cccc(F)c1` [DYX-320, (R,E)-N-(1-(3-fluorophenyl)ethyl)-3-(2-(pyridin-2-yl)vinyl)-1H-indazol-5-amine], the half-inhibitory concentration (IC50) against BaF3-ETV6-NTRK2 turned out to be 32.4 nM; at BaF3-ETV6-NTRK3, 10.4 nM; at BaF3-CD74-NTRK1 it was 37.6 nM.

Turning to `C[C@@H](Nc1ccc2[nH]nc(/C=C/c3cnn(CCO)c3)c2c1)c1cc(F)cc(F)c1` [DYX-327, (R,E)-2-(4-(2-(5-((1-(3,5-difluorophenyl)ethyl)amino)-1H-indazol-3-yl)vinyl)-1H-pyrazol-1-yl)-1-ethanol], the 50% inhibitory concentration (IC50) amounted to 17.6 nM on BaF3-ETV6-NTRK2, 5.4 nM at BaF3-ETV6-NTRK3 and 1.4 nM against BaF3-CD74-NTRK1.
